From US20140228329A1, “USE OF 25-HYDROXY VITAMIN D3 TO PROMOTE PHOSPHOROUS UTILISATION IN RUMINANTS” (DSM IP ASSETS B.V., priority 2011, published 2014)

Tests used:
cattle [1] = test: Low Phosphorous diet experiment in cattle: blood plasma phosphorous concentration; format: in vivo; details: cattle on low Phosphorous roughage diet, 2,000 μg 25-hydroxy-vitamin D3 per head/day vs control diet; measured after 1, 11, 12, 13 and 14 days; effect at least after 10 days (FIG. 1)
Method: (§1) In an experimental cattle farm, two groups of animals were selected for the following experiment with a low Phosphorous diet.
(§2) One group received the control diet which was the standard roughage diet without the supplementation of 25-hydroxy-vitamin D3. The other group received the experimental diet which was the standard roughage diet supplemented with 2,000 μg 25-hydroxy-vitamin D3 per head/day
After 1, 11, 12, 13 and 14 days the blood plasma concentration of phosphorous was measured by standard method.

cattle [2] = test: Low Phosphorous diet experiment in cattle: phosphorous in diet, faeces and urine (P balance); format: in vivo
Method: as §1, §2
Additionally the phosphorous concentration in g/day was measured or/calculated in the diet, faeces and urine.

[3] = low Phosphorous roughage diet, 2,000 μg 25-hydroxy-vitamin D3 per head/day, NS vs control
[4] = low Phosphorous roughage diet, 2,000 μg 25-hydroxy-vitamin D3 per head/day, P < 0.05 vs control

For `C=C1CC[C@H](O)C/C1=C/C=C1\CCC[C@]2(C)[C@@H]([C@H](C)CCCC(C)(C)O)CC[C@@H]12` [25OH-D3, 25-hydroxy vitamin D3], the “phosphorous concentration in blood plasma” value (cattle [1]) was “significant increase”, the “P excretion by the animal” value (cattle [2]; low Phosphorous diet, after 25-OH D3 supplementation vs control) was “significant decrease” and the “P (g/day) Feed” value (cattle [2]; [3]) was 26.36 g/day. For the same molecule, the “P (g/day) Urine” value (cattle [2]; [3]) was 1.12 g/day, the “P (g/day) Faeces” value (cattle [2]; [4]) was 17.21 g/day and the “P (g/day) Retained” value (cattle [2]; [4]) was 8.03 g/day.
